From patent US12673918B2, “Small molecule RPN13 inhibitors with antitumor properties” (The Johns Hopkins University, priority 2019, dated 2026)
Where two headings read alike, the source gives them in different places.

Columns and labels:
[1] = test system: HCC1395; test: MTT cytotoxicity assay, HCC1395; conditions: Homo sapiens, HCC1395, read-out: cytotoxicity IC50 HCC1395
[2] = test system: PEO14; test: cells; conditions: read-out: cytotoxicity IC50 PEO14
Description: (§1) Cell lines and cytotoxicity assays: All cell lines were obtained from the American Type Culture Collection (ATCC) and cultured in the specified medium supplemented with 10% fetal bovine serum, 100 IU/mL penicillin, and 100 μg/mL streptomycin at 37° C. in a humidified 5% CO2/95% air incubator. […] To assess drug cytotoxicity, cells were seeded at 2,500 cells/well (10,000 cells/well for MM lines) in 100 μL medium in 96-well plate and after 24 treated with compounds for 72 h, incubated according to the manufacturer's protocol with the Thiazolyl Blue Tetrazolium Bromide (Sigma, M2128) and A570 measured using a Benchmark Plus microplate spectrophotometer (BIO-RAD). IC50 data was analyzed by Graphpad Prism software. In the chirality studies the cells were treated with compounds for 48 h, and the cells were incubated and measured via the preceeding protocols.

[3] = test system: PEA1; test: cells; conditions: read-out: cytotoxicity IC50 PEA1
Description: as §1

[4] = test system: ES2; test: MTT cytotoxicity assay, ES2
[5] = test system: polyubiquitinated proteins; test: Western blot of polyubiquitinated proteins, SKOV3 cells; assay type: cell-based, human; conditions: 4 h
Description: FIG. 14A illustrates SKOV3 cells treated with compounds for 4 h and analyzed by Western blot analysis with antibody to ubiquitin.
Antibodies, reagents, and Western Blot Analyses: Cell lysate (10-20 μg total protein) prepared in MPER (Pierce) from each sample was subjected to SDS-PAGE, transferred to PVDF membranes and analyzed by Western blot using antibodies specific Bax (#2772, Cell Signaling), ubiquitin (P4D1, sc-8017, Santa Cruz), PARP (#9542, BD Pharmingen), actin (#66009, Protein Tech Group), Tubulin(#66031, Protein Tech Group), ADRM1/Rpn13 (D9Z1U, #12019, Cell Signaling), Lys48-linkled ubiquitin (Apu 2, 05-1307, (Millipore), Annexin V (#559763, BD pharmingen), caspase-3 (51-68655X, BD Pharmingen) at the dilutions recommended by the manufacturers, and for secondary antibodies either peroxidase-linked anti-mouse IgG or anti-rabbit IgG (GE Healthcare UK Ltd) were utilized, HRP conjugated streptavidin (N100, Thermo Fisher) at the recommended dilution (1:5000). MitoTracker Red CMXRos reagent was purchased from ThermoFisher #M7512. The blots were developed using HyGLO chemiluminescent detection reagent (Denville).

[6] = test system: TOV21G; test: MTT cytotoxicity assay, TOV21G
[7] = test system: CaSki; test: MTT cytotoxicity assay, CaSki
[8] = test system: BR5-FvB1; test: MTT cytotoxicity assay, BR5-FvB1; conditions: Mus musculus, read-out: cytotoxicity IC50 BR5-FvB1
Description: as §1

[9] = in vivo; conditions: female, CD1, mouse, ip
Description: Pilot safety studies were performed in CD1 mice (n=3/dose group of healthy female mice aged 6-8 weeks) with increasing single doses delivered i.p. and the NOAEL (no-observed-adverse-effect level) was selected for further animal studies. […] Bortezomib was dissolved in a minimal amount of DMSO and further diluted with saline before injection in a dose finding study. […] To measure on-target inhibition of proteasome activity in mice, a leg muscle of CD-1 mice was transduced with the 4UbFL reporter construct. […] Briefly, mouse leg muscle was electroporated with 4UbFL plasmid and basal bioluminescence was measured after 24 hr using IVIS200 imager after injecting luciferin substrate. Mice were randomized (n=5/group) and treated with compounds in PEG400: Cremophor: Tween40 combination or vehicle alone as shown in Table 5 with one dose delivered by intraperitoneal injection. The mice were again imaged at 4 h, 24 h, 48 h post treatment.

[10] = test system: DLD1; test: MTT cytotoxicity assay, DLD1; conditions: Homo sapiens, DLD-1, read-out: cytotoxicity IC50 DLD1
Description: as §1

[11] = test system: SKOV3-TR; test: MTT cytotoxicity assay, SKOV3-TR
[12] = test system: FaDu; test: cells; conditions: Homo sapiens
[13] = test system: SUM1315; test: cells; conditions: read-out: cytotoxicity IC50 SUM1315
Description: as §1

[14] = test system: MDA-MB-468; test: cells; conditions: Homo sapiens, MDA-MB-468, read-out: cytotoxicity IC50 MDA-MB-468
Description: as §1

[15] = test system: KLE; test: MTT cytotoxicity assay, KLE; conditions: read-out: cytotoxicity IC50 KLE, Tables 3A/4B/4C
[16] = test system: PEO4; test: cells; conditions: PEO4, read-out: cytotoxicity IC50 PEO4
Description: as §1

[17] = test system: HCT116 ARID1A^-/-; test: MTT cytotoxicity assay, HCT116 ARID1A knockout; assay type: cell-based, human; conditions: for IC50: Homo sapiens, read-out: IC50 HCT116 ARID1A^-/-
From the text: Loss of ARID1A function is a common driver of ovarian and some other cancer types, and it confers vulnerability to inhibition of GSH (36).

[18] = test system: HeLa; test: MTT cytotoxicity assay, HeLa; conditions: read-out: cytotoxicity IC50 HeLa, Tables 3A/4B/4C
[19] = test system: OVCAR3; test: MTT cytotoxicity assay, OVCAR3
[20] = test system: HS578T; test: MTT cytotoxicity assay, HS578T
[21] = test system: ID8-vegf; test: MTT cytotoxicity assay, ID8-vegf; conditions: read-out: cytotoxicity IC50 ID8-vegf, Tables 3A/4B/4C
[22] = test system: A2780; test: MTT cytotoxicity assay, A2780
[23] = test system: ANBL6; test: MTT cytotoxicity assay, ANBL6; assay type: cell-based; conditions: Homo sapiens, read-out: IC50 ANBL6
Description: (§2) The cytotoxic efficacy of selected compounds was assessed against multiple myeloma (MM) cell lines, as this is a validated clinical target for the licensed proteasome inhibitors.
(§3) Cell lines and cytotoxicity assays: All cell lines were obtained from the American Type Culture Collection (ATCC) and cultured in the specified medium supplemented with 10% fetal bovine serum, 100 IU/mL penicillin, and 100 μg/mL streptomycin at 37° C. in a humidified 5% CO2/95% air incubator. […] To assess drug cytotoxicity, cells were seeded at 2,500 cells/well (10,000 cells/well for MM lines) in 100 μL medium in 96-well plate and after 24 treated with compounds for 72 h, incubated according to the manufacturer's protocol with the Thiazolyl Blue Tetrazolium Bromide (Sigma, M2128) and A570 measured using a Benchmark Plus microplate spectrophotometer (BIO-RAD). IC50 data was analyzed by Graphpad Prism software.

[24] = test system: OVCAR5; test: MTT cytotoxicity assay, OVCAR5; assay type: cell-based; conditions: Homo sapiens, read-out: IC50 OVCAR5
Description: as §3

[25] = test system: MM.1S; test: MTT cytotoxicity assay, MM.1S; assay type: cell-based; conditions: Homo sapiens, MM1.S, read-out: IC50 MM.1S
Description: as §2, §3

[26] = read-out: cytotoxicity IC50 ES2, Tables 3A/4B/4C, MTT assay
[27] = read-out: cytotoxicity IC50 TOV21G, Tables 3A/4B/4C, MTT assay
[28] = read-out: cytotoxicity IC50 CasKi, Tables 3A/4B/4C, MTT assay
[29] = read-out: cytotoxicity IC50 SKOV3-TR, Tables 3A/4B/4C, MTT assay
[30] = read-out: cytotoxicity IC50 FaDu
[31] = HCT-116, Table 3, MTT, 48 hr, Colon
[32] = read-out: cytotoxicity IC50 OVCAR3, Tables 3A/4B/4C, MTT assay
[33] = read-out: cytotoxicity IC50 HS578T, Tables 3A/4B/4C, MTT assay
[34] = read-out: cytotoxicity IC50 A2780, Tables 3A/4B/4C, MTT assay
[35] = read-out: IC50 TOV21G, Table 3, MTT, 48 hr, Ovarian

SMILES	IC50 [1]	IC50 [2]	IC50 [3]	IC50 [4, 26]	accumulation of polyubiquitinated proteins [5]	IC50 [6, 27]	IC50 [7, 28]	IC50 [8]	IC50 [10]	IC50 [11, 29]	IC50 [12, 30]	IC50 [13]	IC50 [14]	IC50 [15]	IC50 [16]	IC50 [18]	IC50 [19, 32]	IC50 [20, 33]	IC50 [21]	IC50 [22, 34]	also measured
C[C@H]1/C(=C\c2ccc([N+](=O)[O-])cc2)C(=O)/C(=C/c2ccc([N+](=O)[O-])cc2)CN1C(=O)[C@@H](N)Cc1ccccc1	75 nM	92 nM	70 nM	40 nM	enhanced the accumulation of polyubiquitinated proteins	3.6 nM	27 nM	125 nM	164 nM	60 nM	78 nM	258 nM	75 nM	1460 nM	41 nM	–	–	–	–	–	NOAEL [9]: 30 mg/kg
CC(C)C[C@H](NC(=O)[C@H](Cc1ccccc1)NC(=O)c1cnccn1)B(O)O [Bortezomib, bortezomib, reference compound]	–	30 nM	30 nM	–	enhanced the accumulation of polyubiquitinated proteins	–	–	< 20 nM	4.8 nM	–	–	–	–	1190 nM	31 nM	3 nM	30 nM	13 nM	1.5 nM	3 nM	IC50 [17, 31]: 2.8 nM; NOAEL [9]: 0.75 mg/kg
N[C@@H](Cc1ccccc1)C(=O)N1C/C(=C\c2ccc([N+](=O)[O-])cc2)C(=O)/C(=C/c2ccc([N+](=O)[O-])cc2)C1 [RA183, reference compound]	–	–	–	75 nM	enhanced the accumulation of polyubiquitinated proteins	53 nM	312 nM	–	–	77 nM	150 nM	–	250 nM	989 nM	–	112 nM	78 nM	89 nM	198 nM	161 nM	IC50 ([23]; ANBL-6, 48 h): 58 nM; IC50 ([17]; HCT-116, 48 h): 155 nM; IC50 ([4]; read-out: IC50 ES2, Table 3, MTT, 48 hr, Ovarian): 75 nM; IC50 ([24]; OVCAR-5, 48 h): 56 nM; IC50 [6, 35]: 44 nM; IC50 ([7]; read-out: IC50 CaSki, Table 3, MTT, 48 hr, Cervical (HPV +ve)): 312 nM; IC50 ([11]; read-out: IC50 SKOV3-TR, Table 3, MTT, 48 hr, Ovarian, paclitaxel resistant): 77 nM; IC50 ([25]; 48 h): 46 nM; IC50 ([19]; read-out: IC50 OVCAR3, Table 3, MTT, 48 hr, Ovarian): 78 nM; IC50 ([20]; read-out: IC50 HS578T, Table 3, MTT, 48 hr, Triple Negative Breast): 89 nM; IC50 ([22]; read-out: IC50 A2780, Table 3, MTT, 48 hr, Ovarian): 161 nM
N[C@@H](Cc1ccccc1)C(=O)N1C/C(=C\c2ccc(Cl)c(Cl)c2)C(=O)/C(=C/c2ccc(Cl)c(Cl)c2)C1 [RA190, reference compound]	0.35 nM	375 nM	386 nM	115 nM	–	148 nM	324 nM	250 nM	–	109 nM	300 nM	1370 nM	300 nM	1590 nM	168 nM	85 nM	120 nM	78 nM	211 nM	139 nM	IC50 ([23]; ANBL-6, Table 3, MTT, 48 hr, Multiple Myeloma): 67 nM; IC50 [17, 31]: 164 nM; IC50 ([24]; OVCAR-5, Table 3, MTT, 48 hr, Ovarian): 64 nM; IC50 [6, 35]: 83 nM; IC50 ([25]; Table 3, MTT, 48 hr, Multiple Myeloma): 72 nM
O=C(CCl)N[C@@H](Cc1ccccc1)C(=O)N1C/C(=C\c2ccc([N+](=O)[O-])cc2)C(=O)/C(=C/c2ccc([N+](=O)[O-])cc2)C1 [RA375]	–	–	–	–	–	–	3 nM	–	24 nM	22 nM	–	19 nM	–	–	–	–	–	–	–	–	IC50 ([23]; ANBL-6, 48 h): 12 nM; fold less sensitive: parental HCT116 vs isogenic ARID1A knockout [17]: 4 fold; IC50 ([17]; HCT-116, 48 h): 20 nM; IC50 ([4]; read-out: IC50 ES2): 19 nM; IC50 ([24]; OVCAR-5, 48 h): 12 nM; IC50 ([6]; read-out: IC50 TOV21G): 6 nM; IC50 ([7]; read-out: IC50 CaSki): 43 nM; IC50 ([12]; 48 h, read-out: IC50 FaDu): 142 nM; IC50 ([25]; 48 h): 11 nM; IC50 ([19]; read-out: IC50 OVCAR3): 17 nM
CC1/C(=C\c2ccc([N+](=O)[O-])cc2)C(=O)/C(=C/c2ccc([N+](=O)[O-])cc2)CN1C(=O)[C@H](Cc1ccccc1)NC(=O)CCl (some centres unmarked) [RA414]	< 15 nM	30 nM	30 nM	7.5 nM	enhanced the accumulation of polyubiquitinated proteins	1.1 nM	–	–	< 40 nM	< 20 nM	78 nM	20 nM	< 20 nM	1120 nM	30 nM	3 nM	< 20 nM	1.5 nM	< 40 nM	3.5 nM	NOAEL [9]: 3 mg/kg
